Measured values: patent US10681909B2, “Herbicidal triazoles” (FMC Corporation, priority 2014, dated 2020)

Experiments:
[1] = test system: barnyardgrass; assay: Test A preemergence; assay type: in vivo, Echinochloa crus-galli; conditions: 0 to 100 scale (0 no effect, 100 complete control)
Procedure, shortened: (§1)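 Plant seeds in loam soil blended with sand, then apply test chemical preemergence as a directed soil spray; in parallel, spray potted seedlings (one- to two-leaf, 2 to 10 cm) postemergence. Both treatments use a non-phytotoxic solvent mixture with surfactant.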

[2] = test system: pigweed; assay: Test A preemergence; assay type: in vivo, Amaranthus retroflexus; conditions: 0 to 100 scale (0 no effect, 100 complete control)
Procedure, shortened: as §1

[3] = test system: foxtail, giant; assay: Test A postemergence; assay type: in vivo, Setaria faberii; conditions: 0 to 100 scale (0 no effect, 100 complete control), approx. 10 d
Procedure, shortened: as §1

[4] = test system: wheat; assay: Test A postemergence; assay type: in vivo, Triticum aestivum; conditions: 0 to 100 scale (0 no effect, 100 complete control), approx. 10 d
Procedure, shortened: as §1

[5] = test system: sedge, umbrella; assay: Test B flooded paddy test; assay type: in vivo, Cyperus difformis; conditions: 250 g ai/ha, applied to paddy water at 2-leaf stage, visual rating after 13 to 15 d, scale 0 (no effect) to 100 (complete control)
Procedure, shortened: (§2)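 Pots were flooded to 3 cm above the soil at treatment, and compounds were applied directly into the paddy water. That depth was held throughout. After 13 to 15 d in a greenhouse, plants were rated visually against untreated controls.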

[6] = test system: ducksalad; assay: Test B flooded paddy test; assay type: in vivo, Heteranthera limosa; conditions: 250 g ai/ha, applied to paddy water at 2-leaf stage, visual rating after 13 to 15 d, scale 0 (no effect) to 100 (complete control)
Procedure, shortened: as §2

[7] = test system: blackgrass; assay: Test C postemergence; assay type: in vivo, Alopecurus myosuroides
Procedure, shortened: (§3)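 Preemergence: seeds sown in loam soil–sand blend and treated with test chemicals formulated in a non-phytotoxic solvent mixture containing a surfactant. Postemergence: plants grown in peat moss/vermiculite-based medium and sprayed with the same formulation at 2 to 18 cm height (1- to 4-leaf stage).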

[8] = test system: ryegrass, Italian; assay: Test C postemergence; assay type: in vivo, Lolium multiflorum
Procedure, shortened: as §3

[9] = test system: galium; assay: Test C postemergence; assay type: in vivo, Galium aparine
Procedure, shortened: as §3

[10] = test system: corn; assay: Test C postemergence; assay type: in vivo, Zea mays
Procedure, shortened: as §3

[11] = test system: soybean; assay: Test C postemergence; assay type: in vivo, Glycine max
Procedure, shortened: as §3

[12] = test system: barnyardgrass; assay: Test C postemergence; assay type: in vivo, Echinochloa crus-galli
Procedure, shortened: as §3

[13] = test system: waterhemp; assay: Test C postemergence; assay type: in vivo, Amaranthus rudis
Procedure, shortened: as §3

[14] = test system: buckwheat, wild; assay: Test D preemergence; assay type: in vivo, Polygonum convolvulus; conditions: for Plant response rating (0 to 100), Buckwheat, Wild: 16 g ai/ha, 0 is no effect, 100 is complete control; for Plant response rating: Buckwheat, Wild: scale 0 to 100
Description: Seeds of plant species selected from bluegrass (annual bluegrass, Poa annua), blackgrass (Alopecurus myosuroides), canarygrass (Phalaris minor), chickweed (common chickweed, Stellaria media), galium (catchweed bedstraw, Galium aparine), bromegrass, down (downy bromegrass, Bromus tectorum), Russian thistle (Salsola kali), field poppy (Papaver rhoeas), field violet (Viola arvensis), foxtail, green (green foxtail, Setaria viridis), deadnettle (henbit deadnettle, Lamium amplexicaule), ryegrass, Ital. (Italian ryegrass, Lolium multiflorum), kochia (Kochia scoparia), lambsquarters (Chenopodium album), oilseed rape (Brassica napus), pigweed (Amaranthus retroflexus), chamomile (scentless chamomile, Matricaria inodora), speedwell (bird's-eye speedwell, Veronica persica), barley, spring (spring barley, Hordeum vulgare), wheat, spring (spring wheat, Triticum aestivum), buckwheat, wild (wild buckwheat, Polygonum convolvulus), wild mustard (Sinapis arvensis), oat, wild (wild oat, Avena fatua), radish, wild (wild radish, Raphanus raphanistrum), […]), barley, winter (winter barley, Hordeum vulgare), and wheat, winter (winter wheat, Triticum aestivum) were planted into a silt loam soil and treated preemergence with test chemicals formulated in a non-phytotoxic solvent mixture which included a surfactant. At the same time, these species were planted in pots containing Sunshine Redi-Earth® planting medium comprising spaghnum peat moss, vermiculite, starter nutrients and dolomitic limestone and treated with postemergence applications of the test chemicals formulated in the same manner. Plants ranged in height from 2 to 18 cm (1- to 4-leaf stage). Treated plants and controls were maintained in a controlled growth environment for 14 to 21 d after which time all species were compared to controls and visually evaluated. […] A dash (-) response means no test result.

FC(F)(F)COc1nc(-c2ccccc2)nn1Cc1ccnc(C(F)(F)F)c1 [Compound 24]
Plant response rating, Barnyardgrass ([1]; 125 g ai/ha): 50 | Plant response rating, Barnyardgrass ([1]; 500 g ai/ha, approx. 10 d): 90 | Plant response rating, Pigweed ([2]; 125 g ai/ha): 100 | Plant response rating, Pigweed ([2]; 500 g ai/ha, approx. 10 d): 100 | Plant response rating, Foxtail, Giant ([3]; 125 g ai/ha): 70 | Plant response rating, Foxtail, Giant ([3]; 500 g ai/ha): 90 | Plant response rating, Wheat ([4]; 125 g ai/ha): 20 | Plant response rating, Wheat ([4]; 500 g ai/ha): 30 | Plant response rating, Sedge, Umbrella, Flood [5]: 85 | Plant response rating, Ducksalad, Flood [6]: 30 | Plant response rating (scale of 0 to 100 where 0 is no effect and 100 is complete control) ([7]; 31 g ai/ha): 5 | Plant response rating (scale of 0 to 100 where 0 is no effect and 100 is complete control) ([7]; 62 g ai/ha): 5 | Plant response rating (scale of 0 to 100 where 0 is no effect and 100 is complete control) ([7]; 125 g ai/ha): 35 | Plant response rating (scale of 0 to 100 where 0 is no effect and 100 is complete control) ([7]; 250 g ai/ha): 35 | Plant response rating (scale of 0 to 100 where 0 is no effect and 100 is complete control) ([8]; 31 g ai/ha): 5 | Plant response rating (scale of 0 to 100 where 0 is no effect and 100 is complete control) ([8]; 62 g ai/ha): 5 | Plant response rating (scale of 0 to 100 where 0 is no effect and 100 is complete control) ([8]; 125 g ai/ha): 20 | Plant response rating (scale of 0 to 100 where 0 is no effect and 100 is complete control) ([8]; 250 g ai/ha): 25 | Plant response rating (scale of 0 to 100 where 0 is no effect and 100 is complete control) ([9]; 31 g ai/ha): 70 | Plant response rating (scale of 0 to 100 where 0 is no effect and 100 is complete control) ([9]; 62 g ai/ha): 80 | Plant response rating (scale of 0 to 100 where 0 is no effect and 100 is complete control) ([9]; 125 g ai/ha): 80 | Plant response rating (scale of 0 to 100 where 0 is no effect and 100 is complete control) ([9]; 250 g ai/ha): 95 | Plant response rating (scale of 0 to 100 where 0 is no effect and 100 is complete control) ([10]; 31 g ai/ha): 20 | Plant response rating (scale of 0 to 100 where 0 is no effect and 100 is complete control) ([10]; 62 g ai/ha): 20 | Plant response rating (scale of 0 to 100 where 0 is no effect and 100 is complete control) ([10]; 125 g ai/ha): 25 | Plant response rating (scale of 0 to 100 where 0 is no effect and 100 is complete control) ([10]; 250 g ai/ha): 30 | Plant response rating (scale of 0 to 100 where 0 is no effect and 100 is complete control) ([11]; 31 g ai/ha): 55 | Plant response rating (scale of 0 to 100 where 0 is no effect and 100 is complete control) ([11]; 62 g ai/ha): 40 | Plant response rating (scale of 0 to 100 where 0 is no effect and 100 is complete control) ([11]; 125 g ai/ha): 55 | Plant response rating (scale of 0 to 100 where 0 is no effect and 100 is complete control) ([11]; 250 g ai/ha): 40 | Plant response rating (scale of 0 to 100 where 0 is no effect and 100 is complete control) ([12]; 31 g ai/ha): 25 | Plant response rating (scale of 0 to 100 where 0 is no effect and 100 is complete control) ([12]; 62 g ai/ha): 30 | Plant response rating (scale of 0 to 100 where 0 is no effect and 100 is complete control) ([12]; 125 g ai/ha): 35 | Plant response rating (scale of 0 to 100 where 0 is no effect and 100 is complete control) ([12]; 250 g ai/ha): 35 | Plant response rating (scale of 0 to 100 where 0 is no effect and 100 is complete control) ([13]; 31 g ai/ha): 100 | Plant response rating (scale of 0 to 100 where 0 is no effect and 100 is complete control) ([13]; 62 g ai/ha): 98 | Plant response rating (scale of 0 to 100 where 0 is no effect and 100 is complete control) ([13]; 125 g ai/ha): 98 | Plant response rating (scale of 0 to 100 where 0 is no effect and 100 is complete control) ([13]; 250 g ai/ha): 98 | Plant response rating (0 to 100), Buckwheat, Wild [14]: 50 | Plant response rating: Buckwheat, Wild ([14]; 31 g ai/ha): 55 | Plant response rating: Buckwheat, Wild ([14]; 62 g ai/ha): 60 | Plant response rating: Buckwheat, Wild ([14]; 125 g ai/ha): 70

CCOc1nc(-c2ccccc2)nn1Cc1ccnc(C(F)(F)F)c1 [Compound 27]
Plant response rating, Barnyardgrass ([1]; 125 g ai/ha): 100 | Plant response rating, Barnyardgrass ([1]; 500 g ai/ha, approx. 10 d): 100 | Plant response rating, Pigweed ([2]; 125 g ai/ha): 100 | Plant response rating, Pigweed ([2]; 500 g ai/ha, approx. 10 d): 100 | Plant response rating, Foxtail, Giant ([3]; 125 g ai/ha): 90 | Plant response rating, Foxtail, Giant ([3]; 500 g ai/ha): 100 | Plant response rating, Wheat ([4]; 125 g ai/ha): 20 | Plant response rating, Wheat ([4]; 500 g ai/ha): 70 | Plant response rating, Sedge, Umbrella, Flood [5]: 95 | Plant response rating, Ducksalad, Flood [6]: 90 | Plant response rating (scale of 0 to 100 where 0 is no effect and 100 is complete control) ([7]; 31 g ai/ha): 10 | Plant response rating (scale of 0 to 100 where 0 is no effect and 100 is complete control) ([7]; 62 g ai/ha): 15 | Plant response rating (scale of 0 to 100 where 0 is no effect and 100 is complete control) ([7]; 125 g ai/ha): 35 | Plant response rating (scale of 0 to 100 where 0 is no effect and 100 is complete control) ([7]; 250 g ai/ha): 50 | Plant response rating (scale of 0 to 100 where 0 is no effect and 100 is complete control) ([8]; 31 g ai/ha): 5 | Plant response rating (scale of 0 to 100 where 0 is no effect and 100 is complete control) ([8]; 62 g ai/ha): 20 | Plant response rating (scale of 0 to 100 where 0 is no effect and 100 is complete control) ([8]; 125 g ai/ha): 30 | Plant response rating (scale of 0 to 100 where 0 is no effect and 100 is complete control) ([8]; 250 g ai/ha): 35 | Plant response rating (scale of 0 to 100 where 0 is no effect and 100 is complete control) ([9]; 31 g ai/ha): 90 | Plant response rating (scale of 0 to 100 where 0 is no effect and 100 is complete control) ([9]; 62 g ai/ha): 90 | Plant response rating (scale of 0 to 100 where 0 is no effect and 100 is complete control) ([9]; 125 g ai/ha): 85 | Plant response rating (scale of 0 to 100 where 0 is no effect and 100 is complete control) ([9]; 250 g ai/ha): 90 | Plant response rating (scale of 0 to 100 where 0 is no effect and 100 is complete control) ([10]; 31 g ai/ha): 10 | Plant response rating (scale of 0 to 100 where 0 is no effect and 100 is complete control) ([10]; 62 g ai/ha): 15 | Plant response rating (scale of 0 to 100 where 0 is no effect and 100 is complete control) ([10]; 125 g ai/ha): 10 | Plant response rating (scale of 0 to 100 where 0 is no effect and 100 is complete control) ([10]; 250 g ai/ha): 25 | Plant response rating (scale of 0 to 100 where 0 is no effect and 100 is complete control) ([11]; 31 g ai/ha): 70 | Plant response rating (scale of 0 to 100 where 0 is no effect and 100 is complete control) ([11]; 62 g ai/ha): 95 | Plant response rating (scale of 0 to 100 where 0 is no effect and 100 is complete control) ([11]; 125 g ai/ha): 65 | Plant response rating (scale of 0 to 100 where 0 is no effect and 100 is complete control) ([11]; 250 g ai/ha): 70 | Plant response rating (scale of 0 to 100 where 0 is no effect and 100 is complete control) ([12]; 31 g ai/ha): 10 | Plant response rating (scale of 0 to 100 where 0 is no effect and 100 is complete control) ([12]; 62 g ai/ha): 15 | Plant response rating (scale of 0 to 100 where 0 is no effect and 100 is complete control) ([12]; 125 g ai/ha): 25 | Plant response rating (scale of 0 to 100 where 0 is no effect and 100 is complete control) ([12]; 250 g ai/ha): 55 | Plant response rating (scale of 0 to 100 where 0 is no effect and 100 is complete control) ([13]; 31 g ai/ha): 90 | Plant response rating (scale of 0 to 100 where 0 is no effect and 100 is complete control) ([13]; 62 g ai/ha): 95 | Plant response rating (scale of 0 to 100 where 0 is no effect and 100 is complete control) ([13]; 125 g ai/ha): 95 | Plant response rating (scale of 0 to 100 where 0 is no effect and 100 is complete control) ([13]; 250 g ai/ha): 98 | Plant response rating (0 to 100), Buckwheat, Wild [14]: 65 | Plant response rating: Buckwheat, Wild ([14]; 31 g ai/ha): 80 | Plant response rating: Buckwheat, Wild ([14]; 62 g ai/ha): 70 | Plant response rating: Buckwheat, Wild ([14]; 125 g ai/ha): 85
